Here are results for 33 molecules from the Kinase Knowledgebase extract (Sharma et al. 2016).

By IC50 is commonly meant the concentration that inhibits the measured activity by half.

The target in this assay is EGFR (UniProt P00533). Description: Inhibition of EGFR Kinase Activity.
Chain of EGFR (P00533 whole entry, looked up): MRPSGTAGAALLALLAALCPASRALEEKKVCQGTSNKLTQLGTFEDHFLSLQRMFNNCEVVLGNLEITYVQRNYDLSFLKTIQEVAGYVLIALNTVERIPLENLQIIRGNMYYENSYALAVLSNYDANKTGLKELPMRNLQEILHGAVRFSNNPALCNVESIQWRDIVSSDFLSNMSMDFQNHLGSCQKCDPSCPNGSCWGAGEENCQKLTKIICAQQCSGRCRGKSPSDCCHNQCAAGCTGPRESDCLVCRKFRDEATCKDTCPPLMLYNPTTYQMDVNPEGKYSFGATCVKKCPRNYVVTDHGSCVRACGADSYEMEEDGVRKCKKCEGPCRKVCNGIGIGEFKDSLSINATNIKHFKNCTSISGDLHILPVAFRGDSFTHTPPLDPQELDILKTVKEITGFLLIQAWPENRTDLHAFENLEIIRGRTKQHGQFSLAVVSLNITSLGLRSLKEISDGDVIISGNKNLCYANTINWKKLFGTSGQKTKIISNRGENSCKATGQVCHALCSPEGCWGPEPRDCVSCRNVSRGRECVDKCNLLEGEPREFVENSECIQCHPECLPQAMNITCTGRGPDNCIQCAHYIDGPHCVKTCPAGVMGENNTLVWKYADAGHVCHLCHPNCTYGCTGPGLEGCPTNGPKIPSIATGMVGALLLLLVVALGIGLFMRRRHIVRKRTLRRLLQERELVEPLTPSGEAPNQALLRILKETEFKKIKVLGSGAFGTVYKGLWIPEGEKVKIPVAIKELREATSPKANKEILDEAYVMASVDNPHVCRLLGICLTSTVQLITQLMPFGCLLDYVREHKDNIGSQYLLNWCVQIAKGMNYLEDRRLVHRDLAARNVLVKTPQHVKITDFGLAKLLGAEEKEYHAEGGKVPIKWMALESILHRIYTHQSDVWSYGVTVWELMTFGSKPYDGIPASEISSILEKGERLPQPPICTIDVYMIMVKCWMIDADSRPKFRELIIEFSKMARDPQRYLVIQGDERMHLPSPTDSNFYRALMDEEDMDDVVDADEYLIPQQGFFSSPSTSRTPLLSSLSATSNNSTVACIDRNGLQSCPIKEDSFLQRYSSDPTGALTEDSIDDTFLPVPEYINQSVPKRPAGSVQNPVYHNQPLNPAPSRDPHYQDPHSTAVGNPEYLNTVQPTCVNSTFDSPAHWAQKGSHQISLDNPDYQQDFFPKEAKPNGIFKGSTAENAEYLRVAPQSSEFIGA
On to `CC#CC(=O)Nc1cc(Nc2ncnc(N(C)c3cccc(Cl)c3)n2)ccc1OCCCC1CCN(C)CC1`, for which the IC50 was less than 50 µM.

`C=CC(=O)Nc1cc(Nc2ncnc(NN3CCCc4ccc(Cl)cc43)n2)ccc1OCCCC1CCN(C)CC1`: the IC50 is less than 50 µM.

In turn, `C=CC(=O)Nc1ccc(Nc2ncnc(N(CC)c3ccc(OCC)c(OCC)c3)n2)cc1` had an IC50 of less than 50 µM.

`C=CC(=O)Nc1cc(Nc2ncnc(Nc3ccc4c(ccn4Cc4ccccc4)c3)n2)ccc1OCCCC1CCN(C)CC1`: the IC50 was less than 50 µM.

With `C=CC(=O)Nc1ccc(Nc2ncnc(N(CC)c3ccc(OCCO)cc3)n2)cc1`, the IC50 was less than 50 µM.

Turning to `C=CC(=O)Nc1ccc(Nc2ncnc(N(C)c3ccc4c(cnn4Cc4ccccc4)c3)n2)cc1OC`, the IC50 was less than 50 µM.

In turn, `C=CC(=O)N(CCCN1CCOCC1)c1cccc(Nc2ncnc(Nc3cccc4ccccc34)n2)c1` gave an IC50 of less than 50 µM.

As to `CC#CC(=O)Nc1cccc(Nc2ncnc(N(C)c3cc(Cl)cc4ccccc34)n2)c1`, the IC50 is less than 50 µM.

Regarding `C=CC(=O)Nc1cccc(Nc2ncnc(N(C)c3ccc(C(=O)OC)cc3)n2)c1`, the IC50 is less than 50 µM.

In turn, `C=CC(=O)Nc1cccc(Nc2ncnc(N(CC)C3CC3c3ccccc3)n2)c1` (stereo not drawn) had an IC50 of less than 50 µM.

`C=CC(=O)Nc1ccc(Nc2ncnc(Nc3ccc4c(cnn4Cc4ccccc4)c3)n2)cc1OC` had an IC50 of less than 50 µM.

`CC#CC(=O)Nc1cccc(Nc2ncnc(Nc3cc(OC)c(OC)c(OCCN4CCOCC4)c3)n2)c1` registered an IC50 of less than 50 µM.

The molecule `CC#CC(=O)Nc1cc(Nc2ncnc(Nc3ccc(OCc4ccccc4)c(Cl)c3)n2)ccc1OCCCC1CCN(C)CC1` registered an IC50 of less than 50 µM.

On to `C=CC(=O)Nc1cccc(Nc2ncnc(N(C)c3ccc(OCc4ccccc4)cc3)n2)c1`, for which the IC50 was less than 50 µM.

Take `C=CC(=O)N(CCCN1CCOCC1)c1cccc(Nc2ncnc(N(C)c3cccc(Cl)c3)n2)c1`: the IC50 was less than 50 µM.

Turning to `CC#CC(=O)Nc1cccc(Nc2ncnc(N(CC)c3cc(OC)c(OC)c(OCCN4CCOCC4)c3)n2)c1`, the half-inhibitory concentration (IC50) is less than 50 µM.

In turn, `CC#CC(=O)Nc1cccc(Nc2ncnc(Nc3ccc4c(cnn4Cc4ccccc4)c3)n2)c1` yielded an IC50 of less than 50 µM.

Molecule `CC#CC(=O)Nc1cccc(Nc2ncnc(N(CC)c3cccc(C)c3)n2)c1` displayed an IC50 of less than 50 µM.

On to `C=CC(=O)Nc1ccc(Nc2ncnc(Nc3cccc(OCCOC)c3)n2)cc1`, for which the IC50 was less than 50 µM.

The molecule `CC#CC(=O)Nc1cc(Nc2ncnc(Nc3cccc(Cl)c3)n2)ccc1OCCCN1CCOCC1` gave an IC50 of less than 50 µM.

In the case of `C=CC(=O)Nc1ccc(Nc2ncnc(Nc3ccc4NN(=Cc4c3)Cc5ccccn5)n2)cc1`, the IC50 is less than 50 µM.

Take `CC#CC(=O)Nc1cccc(Nc2ncnc(N(CC)c3cccc(CC(=O)OC)c3)n2)c1`: the IC50 is less than 50 µM.

As to `C=CCN(c1cccc(S(=O)(=O)c2ccc([N+](=O)[O-])cc2)c1)c1ncnc(Nc2ccc(NC(=O)C=C)cc2)n1`, the IC50 is less than 50 µM.

Take `C=CC(=O)Nc1ccc(Nc2ncnc(Nc3ccc(C(=O)OC)cc3)n2)cc1`: the IC50 is less than 50 µM.

Molecule `C=CCN(c1ncnc(Nc2cccc(NC(=O)C=C)c2)n1)c1cc(Cl)cc2ccccc12` returned an IC50 of less than 50 µM.

`CC#CC(=O)Nc1cccc(Nc2ncnc(Nc3ccc(F)c(Cl)c3)n2)c1` had an IC50 of less than 50 µM.

The molecule `C=CCN(c1ccc(OCCC)c(OCCC)c1)c1ncnc(Nc2ccc(NC(=O)C=C)cc2)n1` yielded an IC50 of less than 50 µM.

On to `C=CC(=O)Nc1cccc(Nc2ncnc(NC3CC3c3ccccc3)n2)c1` (stereo not drawn), for which the IC50 was less than 50 µM.

In the case of `CC#CC(=O)Nc1cccc(Nc2ncnc(N(CC)c3ccc(OC)c(OCCOC)c3)n2)c1`, the IC50 is less than 50 µM.

With `CC#CC(=O)Nc1cccc(Nc2ncnc(Nc3cccc4ccccc34)n2)c1`, the concentration for half-maximal inhibition (IC50) was less than 50 µM.

`C=CC(=O)Nc1ccc(Nc2ncnc(N(C)c3cccc(S(=O)(=O)c4ccc([N+](=O)[O-])cc4)c3)n2)cc1` gave an IC50 of less than 50 µM.

Molecule `C=CC(=O)Nc1ccc(Nc2ncnc(NN3CCCc4cc(OC)ccc43)n2)cc1` came in with an IC50 of less than 50 µM.

Molecule `C=CC(=O)Nc1cc(Nc2ncnc(N(C)c3cccc(Cl)c3)n2)ccc1OCCCN1CCOCC1` had an IC50 of less than 50 µM.
